# How the values were obtained:
# [1] = tested on: VEGFA (786-O cells); test: VEGFA ELISA Assay (IC50); assay type: cell-based; details: Homo sapiens, 786-0, 24 h, 24 hours incubation, VEGFA in culture supernatant by ELISA
# Protocol: 786-O cells in exponential growth phase were seeded in 96-well plate, the cell concentration was 65,000 cells per milliliter of culture medium, 180 ul per well. Compounds were serial diluted to the indicated concentration, and 20 ul compound solutions of different concentrations were added to the corresponding cell wells. The final compound concentrations were as follows (nM): 1.5, 4.6, 13.7, 41.2, 123.5, 370.4, 1111.1, 3333.3, 10000. After 24 hours of incubation, the cell culture supernatant was taken, and the VEGFA concentration was determined using an ELISA kit (purchased from abcam). Finally, the reaction was terminated, and the light absorbance value of each well was measured using a microplate reader at a wavelength of […], and IC50 was calculated by GraphPad Prism. Cell Titer-Glo reagent was used to measure cell viability.
# [2] = tested on: HIF2α reporter cells (786-O-HIF2α-Luc cells); test: Luciferase Assay (HIF2α reporter cells); assay type: cell-based; details: 18-20 h, Steady-Glo luminescence
# Protocol: Luciferase LUC gene was transfected into 786-O cells (purchased from ATCC) using Lipofectamine 3000 Transfection Reagent (purchased from Invitrogen) to construct HIF2α reporter cells (786-O-HIF2α-Luc cells). Experiments were performed when 786-O-HIF2α-Luc cells were in logarithmic growth phase, culture medium (RPMI MEDIUM 1640, purchased from Invitrogen) was abandoned, the cells were rinsed with PBS three times; trypsin (TrypLE, purchased from invitrogen) was added to digest cells, the digestion was terminated by washing the cells with culture medium, 10% fetal bovine serum, 1% penicillin and streptomycin. The cells were collected by centrifugation, rinsed twice with PBS to remove the phenol red in the medium, and then resuspended the cells to an appropriate concentration, and detected the cell density and viability, and made sure the cell viability is above 90% before it can be used for experiments.
# The gradient concentration compound was transferred into 384-well plate, 25 nl/well using Echo 550 (non-contact sonic pipetting system, purchased from Labcyte); the cells were seeded in 384-well plate, 4500 cells/well, with 25 μl of culture medium, to make the final concentrations as follows: 10000, 3333, 1111, 370, 123, 41.1, 13.7, 4.6, 1.5, 0.5 nM. Cells were incubated at 37° C., 5% CO2 for 18-20 h; Steady-Glo™ Luciferase Assay System (purchased from Promega) was added to 384 well-plate, 25 μl/well; the luminescence value was detected with Envision. The % inhibition rate was calculated according to the RLU (Record Luminescence) signal value of each well, and then the IC50 of the corresponding compound was calculated by Graphpad 8.0.
SMILES,IC50 ([1]; numeric values),IC50 ([2]; numeric values),IC50 ([1]; class symbols),IC50 ([2]; class symbols)
"N#Cc1cc(-c2cc(C(F)(F)F)c3n2CCC(F)(F)C3O)ccc1F (stereo not drawn) [Example 69, 5-(7,7-difluoro-8-hydroxyl-1-(trifluoromethyl)-5,6,7,8-tetrahydroindolizin-3-yl)-2-fluorobenzonitrile]",0.0442 µM,0.067 µM,,
"OC1c2c(C(F)(F)F)cn(-c3ccc(F)c(Cl)c3)c2CCC1(F)F (stereo not drawn) [Example 120, 1-(3-chloro-4-fluorophenyl)-5,5-difluoro-3-(trifluoromethyl)-4,5,6,7-tetrahydro-1H-indol-4-ol]",0.0389 µM,0.0757 µM,,
OC1c2c(C(F)(F)F)cn(-c3cc(F)c(F)c(F)c3)c2CCC1(F)F (stereo not drawn) [Example 148],,,≤ 0.5 µM,≤ 0.5 µM
"O[C@H]1c2c(C(F)(F)F)cn(-c3cc(F)cc(F)c3)c2CCC1(F)F [Example 64, (S)-1-(3,5-difluorophenyl)-5,5-difluoro-3-(trifluoromethyl)-4,5,6,7-tetrahydro-1H-indol-4-ol]",,,≤ 0.5 µM,≤ 0.5 µM
N#Cc1cc(-n2cc(C(F)(F)F)c3c2CCC(F)(F)C3O)ccc1F (stereo not drawn) [Example 121],0.031 µM,0.0985 µM,,
"O[C@H]1c2c(C(F)(F)F)cn(-c3ccc(F)c(C(F)F)c3)c2CCC1(F)F [Example 173, (S)-1-(3-(difluoromethyl)-4-fluorophenyl)-5,5-difluoro-3-(trifluoromethyl)-4,5,6,7-tetrahydro-1H-indol-4-ol]",0.0178 µM,0.0159 µM,,

# Source: US20230219890A1, “BICYCLIC COMPOUNDS AND USE THEREOF” (Betta Pharmaceuticals Co.,Ltd, priority 2020, published 2023)
